Assay results: US9828369B2, “Isoquinoline derivatives useful as inhibitors of diacylglyceride O-acyltransferase 2” (Merck Sharp & Dohme Corp., priority 2014, dated 2017)

Target: hDGAT2 (Homo sapiens (Human), UniProt Q96PD7)
Assay: DGAT2 enzymatic activity assay (triolein formation, LC/MS/MS)
Conditions: read-out: IC50 values for inhibition of DGAT2; membrane prep of Sf-9 cells expressing hDGAT2; 25 μM diolein, 10 μM oleoyl-CoA; room temperature; triolein by LC/MS/MS

Sequence of hDGAT2 (Q96PD7 whole entry): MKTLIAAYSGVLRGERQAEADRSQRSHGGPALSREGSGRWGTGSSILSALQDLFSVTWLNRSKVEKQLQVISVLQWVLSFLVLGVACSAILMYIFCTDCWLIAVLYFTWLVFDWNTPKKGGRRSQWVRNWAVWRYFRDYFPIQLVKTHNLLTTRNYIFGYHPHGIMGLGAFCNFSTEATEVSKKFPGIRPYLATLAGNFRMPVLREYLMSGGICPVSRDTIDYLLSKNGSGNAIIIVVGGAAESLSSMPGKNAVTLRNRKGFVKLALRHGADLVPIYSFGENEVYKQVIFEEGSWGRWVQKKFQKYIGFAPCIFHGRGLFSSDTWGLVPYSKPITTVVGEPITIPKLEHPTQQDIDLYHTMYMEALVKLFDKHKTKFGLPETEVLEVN

| SMILES | IC50 [nM] |
| --- | --- |
| COc1cccc(-c2ccc(CNC(=O)C3CCCN(c4ccccn4)C3)c3cnccc23)c1 (stereo not shown) [Example 41, N-((5-(3-methoxyphenyl)isoquinolin-8-yl)methyl)-1-(pyridin-2-yl)piperidine-3-carboxamide] | 7780 |
| COc1cccc(-c2ccc(CNC(=O)c3cccc4ncccc34)c3cnccc23)c1 [Example 45, N-((5-(3-methoxyphenyl)isoquinolin-8-yl)methyl)quinoline-5-carboxamide] | 745 |
| COc1cccc(-c2ccc(CNC(=O)Cc3ccc(C(F)(F)F)cc3)c3cnccc23)c1 [Example 46, N-((5-(3-methoxyphenyl)isoquinolin-8-yl)methyl)-2-(4-(trifluoromethyl)phenyl)acetamide] | 317 |
| COc1cccc(-c2ccc(CNC(=O)Cc3cccc(C(F)(F)F)c3)c3cnccc23)c1 [Example 48, N-((5-(3-methoxyphenyl)isoquinolin-8-yl)methyl)-2-(3-(trifluoromethyl)phenyl)acetamide] | 291 |
| COc1cccc(-c2ccc(CNC(=O)Cc3ccccc3F)c3cnccc23)c1 [Example 49, 2-(2-fluorophenyl)-N-((5-(3-methoxyphenyl)isoquinolin-8-yl)methyl)acetamide] | 993 |
| COc1cccc(-c2ccc(CNC(=O)Cc3ccccc3C(F)(F)F)c3cnccc23)c1 [Example 51, N-((5-(3-methoxyphenyl)isoquinolin-8-yl)methyl)-2-(2-(trifluoromethyl)phenyl)acetamide] | 1750 |
| COc1cccc(-c2ccc(CNC(=O)Cc3cccc(F)c3)c3cnccc23)c1 [Example 52, 2-(3-fluorophenyl)-N-((5-(3-methoxyphenyl)isoquinolin-8-yl)methyl)acetamide] | 3710 |

Next, values leading:

| IC50 [nM] | SMILES |
| --- | --- |
| 3440 | CCc1cc(C(=O)NCc2ccc(-c3cccc(OC)c3)c3ccncc23)n(C)n1 [Example 35, 3-ethyl-N-((5-(3-methoxyphenyl)isoquinolin-8-yl)methyl)-1-methyl-1H-pyrazole-5-carboxamide] |
| 3010 | COc1cccc(-c2ccc(CNC(=O)c3ccc4c(c3)OCCO4)c3cnccc23)c1 [Example 36, N-((5-(3-methoxyphenyl)isoquinolin-8-yl)methyl)-2,3-dihydrobenzo[b][1,4]dioxine-6-carboxamide] |
| 1270 | COc1cccc(-c2ccc(CNC(=O)c3cnco3)c3cnccc23)c1 [Example 37, N-((5-(3-methoxyphenyl)isoquinolin-8-yl)methyl)oxazole-5-carboxamide] |
| 3200 | COc1cccc(-c2ccc(CNC(=O)c3ncco3)c3cnccc23)c1 [Example 38, N-((5-(3-methoxyphenyl)isoquinolin-8-yl)methyl)oxazole-2-carboxamide] |
| 9390 | COc1cccc(-c2ccc(CNC(=O)c3noc4c3CCCC4)c3cnccc23)c1 [Example 39, N-((5-(3-methoxyphenyl)isoquinolin-8-yl)methyl)-4,5,6,7-tetrahydrobenzo[d]isoxazole-3-carboxamide] |
| 6000 | COc1cccc(-c2ccc(CNC(=O)c3ccc4nccnc4c3)c3cnccc23)c1 [Example 40, N-((5-(3-methoxyphenyl)isoquinolin-8-yl)methyl)quinoxaline-6-carboxamide] |
| 1570 | COc1cccc(-c2ccc(CNC(=O)c3nn(C)c(=O)c4ccccc34)c3cnccc23)c1 [Example 43, N-((5-(3-methoxyphenyl)isoquinolin-8-yl)methyl)-3-methyl-4-oxo-3,4-dihydrophthalazine-1-carboxamide] |
| 1430 | CCCc1cc(C(=O)NCc2ccc(-c3cccc(OC)c3)c3ccncc23)n(C)n1 [Example 44, N-((5-(3-methoxyphenyl)isoquinolin-8-yl)methyl)-1-methyl-3-propyl-1H-pyrazole-5-carboxamide] |
| 1400 | COc1cccc(-c2ccc(CNC(=O)Cc3ccc(Cl)cc3)c3cnccc23)c1 [Example 47, 2-(4-chlorophenyl)-N-((5-(3-methoxyphenyl)isoquinolin-8-yl)methyl)acetamide] |
